Patent publication US20090209552A1, “Organic Compounds” (Novartis AG, priority 2006, published 2009)

How the values were obtained:
human CRTh2 [1] = target: T1, human CRTh2 (Homo sapiens, UniProt Q9Y5Y4); assay: Filtration binding assay ([3H]-PGD2 competition on CHO.K1-CRTh2 membranes); design: expressed in transfected cells; host or cells: CHO.K1 (CHO.K1-CRTh2), membranes; details: [3H]-PGD2 2.5 nM, Cheng-Prussoff
T1 sequence (Q9Y5Y4 1-395): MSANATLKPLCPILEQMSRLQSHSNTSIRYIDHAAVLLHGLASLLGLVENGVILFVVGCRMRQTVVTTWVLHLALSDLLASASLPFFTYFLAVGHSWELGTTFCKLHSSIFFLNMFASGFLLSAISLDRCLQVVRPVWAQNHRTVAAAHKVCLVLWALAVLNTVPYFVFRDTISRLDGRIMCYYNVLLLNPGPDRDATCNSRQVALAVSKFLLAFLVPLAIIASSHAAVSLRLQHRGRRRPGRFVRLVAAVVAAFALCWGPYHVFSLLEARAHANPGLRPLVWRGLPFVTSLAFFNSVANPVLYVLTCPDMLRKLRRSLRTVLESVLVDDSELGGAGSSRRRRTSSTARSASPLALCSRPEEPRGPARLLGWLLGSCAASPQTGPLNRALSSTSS
Protocol: The binding of CRTh2 modulators is determined using membranes prepared from human CRTh2-expressing Chinese Hamster Ovary cells (CHO.K1-CRTh2). To produce cell membranes CHO.K1-CRTh2 cells cultured in roller bottles are harvested using cell dissociation buffer (Invitrogen). The cells are pelleted by centrifugation (167 g, 5 min). The cell pellet is incubated in hypotonic buffer (15 mM Tris-OH, 2 mM MgCl2, 0.3 mM EDTA, 1 mM EGTA, 1× Complete™ tablet) at 4° C. for 30 minutes. At 4° C. cells are homogenized using a Polytron®) (IKA Ultra Turrax T25) for 5 bursts of 1 second. The homogenate is centrifuged (Beckman Optima TM TL Ultracentrifuge, 48000 g, 30 minutes at 4° C.). The supernatant is discarded and the membrane pellet re-suspended in homogenisation buffer (75 mM Tris-OH, 12.5 mM MgCl2, 0.3 mM EDTA, 1 mM EGTA, 250 mM Sucrose, 1× Complete™ tablet. Membrane preparations are aliquoted and stored at […]. The protein content is estimated using Bradford Protein Assay Dye (Bio Rad).
The binding of [^3H]-PGD2 (157 Ci/mmol) to CHO.K1-CRTh2 membranes is determined in the absence (total binding) and presence (non-specific binding) of unlabelled PGD2 (1 μM). Subtraction of the cpm (counts per minute) of [^3H]-PGD2 binding in presence of excess unlabelled PGD2 from that observed in the absence of excess unlabelled PGD2 is defined as specific binding. Active CRTh2 antagonists are able to compete with [^3H]-PGD2 for binding to the CRTh2 receptor and are identified in a decrease in the number of cpm bound. […]
The plates are incubated at room temperature on a shaker for 1 hour, and then harvested (Tomtec Harvester 9600) onto GF/C filter plates using wash buffer (10 mM HEPES-KOH, pH 7.4). […] Plates are then counted using a Packard Top Count instrument, […]
Ki (dissociation constant for the inhibition) values for the CRTh2 antagonists are reported. Ki values are determined using Sigma Plots software, using the Cheng-Prussoff equation. […]

human CRTh2 [2] = target: T1, human CRTh2; assay: CRTH2 cAMP functional assay in CHO.K1-CRTh2 cells; format: cell-based; design: expressed in transfected cells; host or cells: CHO.K1 (CHO.K1-CRTh2), whole cells; details: inhibition of PGD2-mediated attenuation of forskolin-induced cAMP accumulation in CHO.K1-CRTh2 cells
Protocol: where S is the concentration of radioligand and Kd is the dissociation constant. CRTH2 cAMP Functional Assay Protocol
This assay is conducted in CHO.K1-CRTh2 cells. cAMP is generated in the cell by stimulating cells with 5 μM forskolin, an adenylate cyclase activator. PGD2 is added to activate the CRTh2 receptor which results in the attenuation of the forskolin-induced cAMP accumulation. Potential CRTh2 antagonists are tested for their ability to inhibit the PGD2-mediated attenuation of the forskolin-induced cAMP accumulation in CHO.K1-CRTh2 cells.
For each concentration value on the dose-response curve, test compounds are prepared in assay stimulation buffer (HBSS, 5 mM HEPES, 10 μM IBMX±0.1% human serum albumin) containing DMSO (3% vol/vol) and 5 μL/well is added to an assay plate (384 well white optiplate).
CHO.K1-CRTh2 cultured in tissue culture flasks are washed with PBS and harvested with dissociation buffer. Cells are washed with PBS and re-suspended in stimulation buffer to a concentration of 0.4×10^6/mL and added to the assay plate (10 μL/well).
The assay plate is incubated at room temperature on a shaker for 15 minutes.
A mix of agonist (10 nM Prostaglandin D and 5 μM forskolin is prepared in assay stimulation buffer and added to the assay plate (5 μL/well).
In addition, a cAMP standard is serially diluted in assay stimulation buffer and added to separate empty wells on the assay plate (20 μL/well). The cAMP standard allows for the quantification of cAMP generated in CHO.K1-CRTH2 cells.
The assay plate is incubated at room temperature on a shaker for 60 minutes. […]
The assay plate is sealed with Topseal-S™ and incubated in the dark at room temperature on a shaker for 45 minutes. The plate is then counted using a Packard Fusion™ instrument. […]

Row | Ki (human CRTh2 [1]) | IC50 (human CRTh2 [2]) | Compound
1 | 17 nM | 2 nM | N#Cc1cn(CC(=O)O)cc1-c1cc(C(F)(F)F)cc(S(=O)(=O)N2CCN(Cc3ccncc3)CC2)c1 [Example 3, {3-Cyano-4-[3-(4-pyridin-4-ylmethyl-piperazine-1-sulfonyl)-5-trifluoromethyl-phenyl]-pyrrol-1-yl}-acetic acid]
2 | 49 nM | 26 nM | N#Cc1cn(CC(=O)O)cc1-c1cc(Cl)cc(S(=O)(=O)N2CCN(c3ccccc3F)CC2)c1 [Example 9, (3-{3-Chloro-5-[4-(2-fluoro-phenyl)-piperazine-1-sulfonyl]-phenyl}-4-cyano-pyrrol-1-yl)-acetic acid]
3 | 2 nM | 5 nM | Cc1ccc(CNS(=O)(=O)c2cc(-c3cn(CC(=O)O)cc3C#N)cc(C(F)(F)F)c2)o1 [Example 8, (3-Cyano-4-{3-[(5-methyl-furan-2-ylmethyl)-sulfamoyl]-5-trifluoromethyl-phenyl}-pyrrol-1-yl)-acetic acid]
